Measurements from patent publication US20180371408A1, “CELL CULTURES AND METHODS OF USE” (priority 2017, published 2018).
Where “and” joins values, the source holds several entries; their conditions need not be identical. Identical values can stand only once. Like-named read-outs stand apart in the source and are kept apart here.

Columns and labels:
[1] = test system: reproductive system; conditions: cited from earlier work
[2] = test system: reproductive system; conditions: cited from earlier work; remark: listed apart in the source
[3] = test system: Spermatogonial cells (C18-4); assay: cells; assay type: cell-based, mouse
[4] = test system: Leydig cells (TM3); assay: cells; assay type: cell-based, mouse
[5] = test system: testicular co-culture: spermatogonial cells (C18-4), Sertoli cells (TM4), Leydig cells (TM3); conditions: for concentration with statistically significant decrease in viability (p<0.05): 48 h exposure
[6] = test system: testicular co-culture: spermatogonial cells (C18-4), Sertoli cells (TM4), Leydig cells (TM3); assay: cells; conditions: Mus musculus
[7] = test system: Sertoli cells (TM4); assay: cells; assay type: cell-based, mouse
[8] = test system: testicular co-culture (spermatogonial, Sertoli, Leydig cells); assay: Multi-parametric high-content assay of the co-culture treated with cadmium; assay type: cell-based, mouse; conditions: 0.05, 0.25, 0.50 and 1.0 μM for 48 h
Excerpt: All cultures were viewed with an Olympus inverted microscope equipped with phase-contrast optics (Olympus, Tokyo, Japan) at intervals during the culture to assess their general appearance. Images were captured and digitized with a Nikon Camera. To further examine the morphology of the cultured cells, a multi-parametric high-content analysis (HCA) was applied to quantify the F-actin cytoskeleton, nuclear shape, and cell proliferation. The spermatogonial cells were identified using typical markers of mouse germ cell nuclear antigen (GCNA1) (Developmental Studies Hybridoma Bank, http://dshb.biology.uiowa.edu, Iowa, IA)(Enders and May, 1994). Leydig cells were identified using steroidogenic acute regulatory protein (StAR)(Clark et al., 1994) (kindly gifted by Dr. Douglas M. Stocco, Texas Tech University). Sertoli cells were stained with SOX9 (Developmental Studies Hybridoma Bank, Iowa, IA). After culture for 48 and 72 h, cells were washed with phosphate buffered saline (PBS), fixed with 4% formaldehyde for 20 min at room temperature, and then washed with PBS three times. […] The multichannel images were automatically captured using an Arrayscan VTI HCS reader with a Studio 2.0 Target Activation BioApplication module (Thermo Scientific, MA). […]
Single-cell based High-content Analysis (HCA) provided multi-parameter phenotypic profiling characterization, including number, nuclear area, shape, and intensity, as previously reported (Liang et al., 2017). […] With 36 fields of each well, at least 4000 cells were analyzed per well, and single-cell based data for each channel were exported for further statistical analysis. […]
For quantitative analysis of three-dimensional F-actin cytoskeleton, we applied the Cytoskeletal Re-arrangement Assay in the Morphology Explorer Bioapplication (ThermoScientific, MA) to determine the number, dimensions and alignment—as well as the texture—of actin fibers based on the manufacturer's guideline (ThermoFisher, 2010). […]

[9] = based on ToxCast database and literature search
[10] = Spermatogonial Cell, 48 h, highest concentration tested assigned as IC50 where viability did not decrease 50%, read-out: IC50
[11] = Leydig Cell, 48 h, highest concentration tested assigned as IC50 where viability did not decrease 50%, read-out: IC50
[12] = Co-culture, 24 h, highest concentration tested assigned as IC50 where viability did not decrease 50%
[13] = Co-culture, 48 h, highest concentration tested assigned as IC50 where viability did not decrease 50%
[14] = co-culture, 48 h treatment, FIG. 6
[15] = Mus musculus, 24 h, read-out: IC50
[16] = Mus musculus, 48 h, read-out: IC50
[17] = Mus musculus, Leydig, 24 h, read-out: IC50
[18] = Mus musculus, Leydig, 48 h, read-out: IC50
[19] = Spermatogonial Cell, 24 h, highest concentration tested assigned as IC50 where viability did not decrease 50%, read-out: IC50
[20] = Leydig Cell, 24 h, highest concentration tested assigned as IC50 where viability did not decrease 50%, read-out: IC50
[21] = Sertoli Cell, 24 h, highest concentration tested assigned as IC50 where viability did not decrease 50%, read-out: IC50
[22] = Sertoli Cell, 48 h, highest concentration tested assigned as IC50 where viability did not decrease 50%, read-out: IC50

Molecule | In vivo Reproductive Toxicity [1, 9] | effect on cell viability (NR uptake), in words [5, 14] | IC50 ([6]; 24 h) [µM] | IC50 ([6]; 48 h) [µM] | IC50 [3, 15] [µM] | IC50 [3, 16] [µM] | IC50 [4, 17] [µM] | IC50 [4, 18] [µM] | IC50 [7, 15] [µM] | IC50 [7, 16] [µM] | also measured
CC/C(=C(/CC)c1ccc(O)cc1)c1ccc(O)cc1 [DES, Diethylstilbestrol] | + |  |  |  |  |  |  |  |  |  | reproductive LOAEL ([2]; in rats): 10 mg/kg/day
CCCCCOC(=O)c1ccccc1C(=O)OCCCCC [DPP] |  | dose-dependent decrease of cell viability |  |  |  |  |  |  |  |  | IC50 [3, 10]: 372 µM; IC50 [4, 11]: 244 µM; IC50 [5, 12]: 550 µM; IC50 [5, 13]: 352 µM
CCOC(=O)c1ccccc1C(=O)OCC [DEP, Diethylphthalate] | − | no or slight decrease of cell viability | > 400 | > 400 | > 400 | > 400 | > 400 | > 400 | > 400 | > 400 | developmental toxicity of phthalates (literature) ([1]; in vivo): developmental non-toxic
O=C1NS(=O)(=O)c2ccccc21 [SAC] |  | did not cause a significant decrease in cell viability |  |  |  |  |  |  |  |  | 
COC(=O)c1ccccc1C(=O)OC [DMP] |  | no or slight decrease of cell viability |  |  |  |  |  |  |  |  | developmental toxicity of phthalates (literature) ([1]; in vivo): developmental non-toxic
CCCC(CCC)C(=O)[O-].[Na+] [VPA, Valproic acid sodium salt] | + | statistically significant decreases in cell viability | > 20000 | 8850 | > 20000 | 6000 | > 20000 | 9480 | > 20000 | 7610 | 
CCOP(=S)(OCC)Oc1nc(Cl)c(Cl)cc1Cl [CHL, chlorpyrifos] | + | significant dose-dependent decrease of cell viability | 91.5 | 89 | 118 | 96 | 142 | 120 | 212 | 120 | IC50 ([6]; read-out: IC50 values (mostly)): ≤ 100 µM
C[C@H]1CCCC(=O)CCC/C=C/c2cc(O)cc(O)c2C(=O)O1 [ZEA, Zearalenone] | + |  | 7.2 | 4.1 | 3.8 | 2 | 3.4 | 2.5 | 3.1 | 2.5 | IC50 ([6]; read-out: IC50 values (mostly)): ≤ 100 µM; reproductive LOAEL ([2]; in rats): 1 mg/kg/day
Sodium arsenite [As] |  |  |  |  |  |  |  |  |  |  | IC50 ([3]; read-out: IC50): 6.9 µM and 6.8 µM; In vivo Reproductive Toxicity ([1]; in vivo): +; IC50 ([4]; read-out: IC50): 20.3 µM and 16.1 µM; reproductive LOAEL ([2]; rat, in vivo): 8 mg/kg/day; IC50 ([7]; read-out: IC50): 12 µM and 6.9 µM; IC50 [5]: 15 µM and 10 µM; effect on cell viability (NR uptake), in words [5]: most toxic
O=C(c1ccc2c(c1)C(=O)OC2=O)c1ccc2c(c1)C(=O)OC2=O [BEN, Benzophenone-3,3′,4,4′-tetracarboxylic dianhydride] | + | significant dose-dependent decrease of cell viability |  |  |  |  |  |  |  |  | 
[Cl][Cd][Cl] [Cd, Cadmium chloride] | + | most toxic |  |  |  |  |  |  |  |  | F-actin cytoskeletal structure [8]: destruction of cytoskeletal structure; cell proliferation (cell number) [8]: decrease of cell proliferation (cell number); γH2AX foci formation ([8]; dose-dependent): significantly induced phosphorylation of γH2AX foci formation; IC50 [3, 19]: 2.1 µM; IC50 [3, 10]: 2.1 µM; IC50 [4, 20]: 16 µM; IC50 [4, 11]: 8.5 µM; reproductive LOAEL ([2]; in rats): 0.088 mg/kg/day; IC50 [7, 21]: 14.6 µM; IC50 [7, 22]: 9.5 µM; IC50 [5, 12]: 11.3 µM; IC50 [5, 13]: 4.2 µM
CCCCOC(=O)c1ccccc1C(=O)OCCCC [DBP, Dibutyl phthalate] | + | dose-dependent decrease of cell viability | 437 | 388 | ≥ 400 | 371 | ≥ 400 | ≥ 400 | ≥ 400 | ≥ 400 | concentration with statistically significant decrease in viability (p<0.05) ([5]; co-culture, FIG. 6): 200 µM
CCCCOC(=O)c1ccccc1C(=O)OCc1ccccc1 [BBP, Benzyl butyl phthalate] | + | dose-dependent decrease of cell viability | 885 | 539 | ≥ 400 | ≥ 400 | ≥ 400 | ≥ 400 | ≥ 400 | ≥ 400 | concentration with statistically significant decrease in viability (p<0.05) ([5]; co-culture, FIG. 6): 200 µM
OB(O)O [BA, Boric acid] |  |  | > 5000 | > 5000 |  |  |  |  |  |  | IC50 ([3]; Mus musculus, 24 h): > 5000 µM; IC50 ([3]; Mus musculus, 48 h): 3580 µM; In vivo Reproductive Toxicity ([1]; in vivo): +; call in in vivo models ([1]; in vivo): positive; IC50 ([4]; Mus musculus, Leydig, 24 h): > 5000 µM; IC50 ([4]; Mus musculus, Leydig, 48 h): > 5000 µM; IC50 ([7]; Mus musculus, 24 h): > 5000 µM; IC50 ([7]; Mus musculus, 48 h): > 5000 µM; effect on cell viability (NR uptake), in words [5]: statistically significant decreases in cell viability; in vitro call as reproductive toxicant [5]: negative
TCEP |  | statistically significant decreases in cell viability |  |  |  |  |  |  |  |  | IC50 [3, 19]: 5110 µM; IC50 [3, 10]: 3680 µM
O=P1(N(CCCl)CCCl)NCCCO1 (stereo not drawn) [CYC, Cyclophosphamide] |  |  | > 5000 | > 5000 |  |  |  |  |  |  | IC50 ([3]; Mus musculus, 24 h): > 5000 µM; IC50 ([3]; Mus musculus, 48 h): > 5000 µM; In vivo Reproductive Toxicity ([1]; in vivo): +; call in in vivo models ([1]; in vivo): positive; IC50 ([4]; Mus musculus, Leydig, 24 h): > 5000 µM; IC50 ([4]; Mus musculus, Leydig, 48 h): > 5000 µM; IC50 ([7]; Mus musculus, 24 h): > 5000 µM; IC50 ([7]; Mus musculus, 48 h): > 5000 µM; effect on cell viability (NR uptake), in words [5]: did not cause a significant decrease in cell viability; in vitro call as reproductive toxicant [5]: negative
NC(=O)NO [HU] |  | statistically significant decreases in cell viability |  |  |  |  |  |  |  |  | IC50 [3, 10]: 300 µM; IC50 [4, 20]: 600 µM; IC50 [4, 11]: 200 µM; IC50 [7, 21]: 396 µM; IC50 [7, 22]: 150 µM; IC50 [5, 13]: 200 µM
Oc1cc(Cl)ccc1Oc1ccc(Cl)cc1Cl [TCS] |  | significant dose-dependent decrease of cell viability |  |  |  |  |  |  |  |  | IC50 [3, 19]: 62.7 µM; IC50 [3, 10]: 57.3 µM; IC50 [4, 20]: 135 µM; IC50 [4, 11]: 80 µM; IC50 [7, 21]: 81 µM; IC50 [7, 22]: 72.7 µM; IC50 [5, 12]: 121 µM; IC50 [5, 13]: 76.5 µM
